Assay [1] concerns brain organoids. Nature of the assay: Electrophysiological signal measurement of retinal/brain organoid conjugates using a multi-electrode array. It counts as cell-based, human. As to conditions: 100 μM glutamate mixed into the co-culture medium. On the procedure:
The formation of conjugates of brain organoids and retinal organoids in Examples 1-3 above was confirmed through signal measurement using a multi-electrode array. Retinal/brain organoids were placed on electrodes of the multi-electrode array for signal measurement, and then the generation of electrophysiological signals was measured while light was applied to the retinal organoids. In addition, glutamate was added as a neurotransmitter to the co-culture medium used in the multi-electrode array, and electrophysiological signals generated from brain organoids were measured.

In assay [2] the test system is brain organoid of the versatile biohybrid robot. Nature of the assay: Movement of the versatile biohybrid robot in co-culture media. On the set-up: species or system human. To be noted: brain organoid stimulated using glutamate; 0.27 cm/min before stimulation.

The values below come from US20260265689A1, “BIOHYBRID ROBOT INCLUDING RETINAL/BRAIN ORGANOID, MOTOR NERVE SPHEROID, AND MUSCLE BUNDLE, AND MANUFACTURING METHOD THEREFOR” (SOGANG UNIVERSITY RESEARCH & BUSINESS DEVELOPMENT FOUNDATION, priority 2023, published 2026).

Structures are written as SMILES.

For `N[C@@H](CCC(=O)O)C(=O)O` [glutamate], the “electrophysiological signals generated by stimulating brain organoids” value in assay [1] was “transmitted to the brain organoids”. Moreover, the “movement of the biohybrid robot after stimulation” value in assay [2] came to 0.52 cm/min.
